Measurements from patent publication US10370356B2, “Pyridinone dicarboxamide for use as bromodomain inhibitors” (GlaxoSmithKline Intellectual Property (No. 2) Limited, priority 2015, dated 2019).
Where a name gives a salt, the structure may show the parent alone.

Biological target: T1, BRD4 BD2 (Homo sapiens, UniProt O60885, Y97A)
T1 construct: BRD4 (1-477) (Y97A) and (Y390A); made in house; host or cells: E. coli (pET15b vector)
Experiment: BRD4 BD2 mutant TR-FRET competition assay
Assay type: binding
Conditions: average of N recorded values, read-out: BRD4 BD2 IC50 (average value) (converted)

| IC50 [nM] | SMILES |
| --- | --- |
| 31.6 | CNC(=O)c1cc(C(=O)NCCCC2CCNCC2)cn(Cc2ccccc2)c1=O [Example 6a, 1-Benzyl-N^3-methyl-2-oxo-N^5-(3-(piperidin-4-yl)propyl)-1,2-dihydropyridine-3,5-dicarboxamide] |
| 31.6 | CNC(=O)c1cc(C(=O)NCCCC2CCN(C)CC2)cn(Cc2ccccc2)c1=O [Example 7, 1-Benzyl-N^3-methyl-N^5-(3-(1-methylpiperidin-4-yl)propyl)-2-oxo-1,2-dihydropyridine-3,5-dicarboxamide] |
| 50.1 | CNC(=O)c1cc(C(=O)NCCCC2CCNCC2)cn(Cc2cccc(OCCO)c2)c1=O [Example 23, 1-(3-(2-Hydroxyethoxy)benzyl)-N^3-methyl-2-oxo-N^5-(3-(piperidin-4-yl)propyl)-1,2-dihydropyridine-3,5-dicarboxamide] |
| 39.8 | CNC(=O)c1cc(C(=O)NCCCC2CCN(CCO)CC2)cn(Cc2ccccc2)c1=O [Example 25] |
| 25.1 | CNC(=O)c1cc(C(=O)NCCCC2CCN(CCF)CC2)cn(Cc2ccccc2)c1=O [Example 29, 1-Benzyl-N^5-(3-(1-(2-fluoroethyl)piperidin-4-yl)propyl)-N^3-methyl-2-oxo-1,2-dihydropyridine-3,5-dicarboxamide. formic acid salt] |
| 10 | CNC(=O)c1cc(C(=O)NCCCC2CCNCC2)cn(Cc2cccc3[nH]ccc23)c1=O [Example 30, 1-((1H-Indol-4-yl)methyl)-N^3-methyl-2-oxo-N^5-(3-(piperidin-4-yl)propyl)-1,2-dihydropyridine-3,5-dicarboxamide] |

Same assay, conditions: read-out: pIC50 in the BRD4 BD2 assay (converted)

| IC50 [nM] | SMILES |
| --- | --- |
| ≤ 100 | CNC(=O)c1cc(C(=O)NCCC2CCNCC2)cn(Cc2ccccc2)c1=O [Example 2, 1-Benzyl-N^3-methyl-2-oxo-N^5-(2-(piperidin-4-yl)ethyl)-1,2-dihydropyridine-3,5-dicarboxamide] |
| ≤ 100 | CNC(=O)c1cc(C(=O)NCCC2CCN(C)CC2)cn(Cc2ccccc2)c1=O [Example 3, 1-Benzyl-N^3-methyl-N^5-(2-(1-methylpiperidin-4-yl)ethyl)-2-oxo-1,2-dihydropyridine-3,5-dicarboxamide] |
| 100 to 1000 | CNC(=O)c1cc(C(=O)NC2CN(C(=O)OC(C)(C)C)C2)cn(Cc2ccccc2)c1=O [Example 4, tert-Butyl 3-(1-benzyl-5-(methylcarbamoyl)-6-oxo-1,6-dihydropyridine-3-carboxamido)azetidine-1-carboxylate] |
| 100 to 1000 | CNC(=O)c1cc(C(=O)NCCCC2CCN(C(=O)OC(C)(C)C)CC2)cn(Cc2ccccc2)c1=O [Example 5] |
| ≤ 100 | CNC(=O)c1cc(C(=O)NCCCC2CCNCC2)cn(Cc2ccccc2)c1=O [Example 6a, 1-Benzyl-N^3-methyl-2-oxo-N^5-(3-(piperidin-4-yl)propyl)-1,2-dihydropyridine-3,5-dicarboxamide] |
| ≤ 100 | CNC(=O)c1cc(C(=O)NCCCC2CCN(C)CC2)cn(Cc2ccccc2)c1=O [Example 7, 1-Benzyl-N^3-methyl-N^5-(3-(1-methylpiperidin-4-yl)propyl)-2-oxo-1,2-dihydropyridine-3,5-dicarboxamide] |
| 100 to 1000 | CNC(=O)c1cc(C(=O)NCCCC2CCN(C(C)=O)CC2)cn(Cc2ccccc2)c1=O [Example 8, N^5-(3-(1-Acetylpiperidin-4-yl)propyl)-1-benzyl-N^3-methyl-2-oxo-1,2-dihydropyridine-3,5-dicarboxamide] |
| 100 to 1000 | CNC(=O)c1cc(C(=O)NCCC2CCOC2)cn(Cc2ccccc2)c1=O (stereo not shown) [Example 9, 1-Benzyl-N^3-methyl-2-oxo-N^5-(2-(tetrahydrofuran-3-yl)ethyl)-1,2-dihydropyridine-3,5-dicarboxamide] |
| ≤ 100 | CNC(=O)c1cc(C(=O)NCCCC2CCN(CC(F)(F)F)CC2)cn(Cc2ccccc2)c1=O [Example 10] |
| ≤ 100 | CCN1CCC(CCCNC(=O)c2cc(C(=O)NC)c(=O)n(Cc3ccccc3)c2)CC1 [Example 11, 1-Benzyl-N^5-(3-(1-ethylpiperidin-4-yl)propyl)-N^3-methyl-2-oxo-1,2-dihydropyridine-3,5-dicarboxamide] |
| ≤ 100 | CNC(=O)c1cc(C(=O)NCCCN2CCNCC2)cn(Cc2ccccc2)c1=O [Example 12, 1-Benzyl-N^3-methyl-2-oxo-N^5-(3-(piperazin-1-yl)propyl)-1,2-dihydropyridine-3,5-dicarboxamide, hydrochloride] |
| 100 to 1000 | CNC(=O)c1cc(C(=O)NCCC2CCS(=O)(=O)CC2)cn(Cc2ccccc2)c1=O [Example 13, 1-Benzyl-N^5-(2-(1,1-dioxidotetrahydro-2H-thiopyran-4-yl)ethyl)-N^3-methyl-2-oxo-1,2-dihydropyridine-3,5-dicarboxamide] |
| ≤ 100 | CNC(=O)c1cc(C(=O)NCCCC2CCNCC2)cn(Cc2ccccc2F)c1=O [Example 14, 1-(2-Fluorobenzyl)-N^3-methyl-2-oxo-N^5-(3-(piperidin-4-yl)propyl)-1,2-dihydropyridine-3,5-dicarboxamide] |
| ≤ 100 | CNC(=O)c1cc(C(=O)NCCCC2CCNCC2)cn(Cc2cccc(C)c2)c1=O [Example 15, N^3-Methyl-1-(3-methylbenzyl)-2-oxo-N^5-(3-(piperidin-4-yl)propyl)-1,2-dihydropyridine-3,5-dicarboxamide] |
| ≤ 100 | CNC(=O)c1cc(C(=O)NCCC2CCNCC2)cn(Cc2cccc(C)c2)c1=O [Example 16, N^3-Methyl-1-(3-methylbenzyl)-2-oxo-N^5-(2-(piperidin-4-yl)ethyl)-1,2-dihydropyridine-3,5-dicarboxamide] |
| ≤ 100 | CNC(=O)c1cc(C(=O)NCCCC2CCNCC2)cn([C@H](C)c2ccccc2)c1=O [Example 17, (R)-N^3-Methyl-2-oxo-1-(1-phenylethyl)-N^5-(3-(piperidin-4-yl)propyl)-1,2-dihydropyridine-3,5-dicarboxamide] |
| ≤ 100 | CNC(=O)c1cc(C(=O)NCCC2CCNCC2)cn([C@H](C)c2ccccc2)c1=O [Example 18, (R)-N^3-Methyl-2-oxo-1-(1-phenylethyl)-N^5-(2-(piperidin-4-yl)ethyl)-1,2-dihydropyridine-3,5-dicarboxamide] |
| ≤ 100 | CNC(=O)c1cc(C(=O)NCCCC2CCNCC2)cn(Cc2cccc(OC)c2)c1=O [Example 19, 1-(3-Methoxybenzyl)-N^3-methyl-2-oxo-N^5-(3-(piperidin-4-yl)propyl)-1,2-dihydropyridine-3,5-dicarboxamide] |
| 100 to 1000 | CNC(=O)c1cc(C(=O)NCCC2CCNCC2)cn(Cc2cccc(OC)c2)c1=O [Example 20, 1-(3-Methoxybenzyl)-N^3-methyl-2-oxo-N^5-(2-(piperidin-4-yl)ethyl)-1,2-dihydropyridine-3,5-dicarboxamide] |

| IC50 [nM] | SMILES |
| --- | --- |
| ≤ 100 | CNC(=O)c1cc(C(=O)NCCCC2CCNCC2)cn(Cc2ccc(F)c(C)c2)c1=O [Example 21, 1-(4-Fluoro-3-methylbenzyl)-N^3-methyl-2-oxo-N^5-(3-(piperidin-4-yl)propyl)-1,2-dihydropyridine-3,5-dicarboxamide] |
| ≤ 100 | CNC(=O)c1cc(C(=O)NCCCC2CCNCC2)cn(Cc2ccc(F)cc2)c1=O [Example 22, 1-(4-Fluorobenzyl)-N^3-methyl-2-oxo-N-(3-(piperidin-4-1)propyl)-1,2-dihydropyridine-3,5-dicarboxamide] |
| ≤ 100 | CNC(=O)c1cc(C(=O)NCCCC2CCNCC2)cn(Cc2cccc(OCCO)c2)c1=O [Example 23, 1-(3-(2-Hydroxyethoxy)benzyl)-N^3-methyl-2-oxo-N^5-(3-(piperidin-4-yl)propyl)-1,2-dihydropyridine-3,5-dicarboxamide] |
| ≤ 100 | CNC(=O)c1cc(C(=O)NCCC2CCNCC2)cn(Cc2cccc(OCCO)c2)c1=O [Example 24, 1-(3-(2-Hydroxyethoxy)benzyl)-N^3-methyl-2-oxo-N^5-(2-(piperidin-4-yl)ethyl)-1,2-dihydropyridine-3,5-dicarboxamide] |
| ≤ 100 | CNC(=O)c1cc(C(=O)NCCCC2CCN(CCO)CC2)cn(Cc2ccccc2)c1=O [Example 25] |
| ≤ 100 | CNC(=O)c1cc(C(=O)NCCCC2CCNCC2)cn(Cc2cccc(C)c2F)c1=O [Example 26, 1-(2-Fluoro-3-methylbenzyl)-N^3-methyl-2-oxo-N^5-(3-(piperidin-4-yl)propyl)-1,2-dihydropyridine-3,5-dicarboxamide] |
| 100 to 1000 | CNC(=O)c1cc(C(=O)NCCC2CCNCC2)cn(Cc2cccc(C)c2F)c1=O [Example 27, 1-(2-Fluoro-3-methylbenzyl)-N^3-methyl-2-oxo-N^5-(2-(piperidin-4-yl)ethyl)-1,2-dihydropyridine-3,5-dicarboxamide] |
| ≤ 100 | CNC(=O)c1cc(C(=O)NCCCC2CCN(CC(F)F)CC2)cn(Cc2ccccc2)c1=O [Example 28] |
| ≤ 100 | CNC(=O)c1cc(C(=O)NCCCC2CCN(CCF)CC2)cn(Cc2ccccc2)c1=O [Example 29, 1-Benzyl-N^5-(3-(1-(2-fluoroethyl)piperidin-4-yl)propyl)-N^3-methyl-2-oxo-1,2-dihydropyridine-3,5-dicarboxamide. formic acid salt] |
| ≤ 100 | CNC(=O)c1cc(C(=O)NCCCC2CCNCC2)cn(Cc2cccc3[nH]ccc23)c1=O [Example 30, 1-((1H-Indol-4-yl)methyl)-N^3-methyl-2-oxo-N^5-(3-(piperidin-4-yl)propyl)-1,2-dihydropyridine-3,5-dicarboxamide] |
| 100 to 1000 | CNC(=O)c1cc(C(=O)NCCC2CCCOC2)cn(Cc2ccccc2)c1=O (stereo not shown) [Example 31, 1-Benzyl-N^3-methyl-2-oxo-N^5-(2-(tetrahydro-2H-pyran-3-yl)ethyl)-1,2-dihydropyridine-3,5-dicarboxamide] |
| 100 to 1000 | CNC(=O)c1cc(C(=O)NCCC2CCN(C(=O)OC(C)(C)C)CC2)cn(Cc2ccccc2)c1=O [Example 32, tert-Butyl 4-(2-(1-benzyl-5-(methylcarbamoyl)-6-oxo-1,6-dihydropyridine-3-carboxamido)ethyl)piperidine-1-carboxylate] |
| 100 to 1000 | CNC(=O)c1cc(C(=O)NC2CNC2)cn(Cc2ccccc2)c1=O [Example 33, N^5-(Azetidin-3-l)-1-benzyl-N^3-methyl-2-oxo-1,2-dihydropyridine-3,5-dicarboxamide] |
| 1000 to 100000 | CNC(=O)c1cc(C(=O)NC2CN(C)C2)cn(Cc2ccccc2)c1=O [Example 34, 1-Benzyl-N^3-methyl-N^5-(1-methylazetidin-3-yl)-2-oxo-1,2-dihdyropyridine-3,5-dicarboxamide] |
| 1000 to 100000 | CNC(=O)c1cc(C(=O)NC2CC3OCCCC23)cn(Cc2ccccc2)c1=O (stereo not shown) [Example 35, 1-Benzyl-N^5-(2-oxabicyclo[4.2.0]octan-7-yl)-N^3-methyl-2-oxo-1,2-dihydropyridine-3,5-dicarboxamide] |
| 100 to 1000 | CNC(=O)c1cc(C(=O)NCCC2CCN(C)C2)cn(Cc2ccccc2)c1=O (stereo not shown) [Example 36, 1-Benzyl-N^3-methyl-N^5-(2-(1-methylpyrrolidin-3-yl)ethyl)-2-oxo-1,2-dihydropyridine-3,5-dicarboxamide] |
| 100 to 1000 | CNC(=O)c1cc(C(=O)NCCCN2CCOCC2)cn(Cc2ccccc2)c1=O [Example 37, 1-Benzyl-N^3-methyl-N^5-(3-morpholinopropyl)-2-oxo-1,2-dihydropyridine-3,5-dicarboxamide] |
| 1000 to 100000 | CNC(=O)c1cc(C(=O)NCCC2CCCN(C(=O)OC(C)(C)C)C2)cn(Cc2ccccc2)c1=O (stereo not shown) [Example 38, tert-Butyl 3-(2-(1-benzyl-5-(methylcarbamoyl)-6-oxo-1,6-dihydropyridine-3-carboxamido)ethyl)piperidine-1-carbxylate] |
